These are literature values, as cited in US6107342A, “2-amino-bicyclo[3.1.0]hexane-2,6-dicarboxylic acid derivatives and a process for the preparation thereof” (Hoffmann-La Roche Inc., priority 1998, dated 2000).

The target in data set [1] is group II metabotropic glutamate receptor. The settings on record: antagonism of inhibition by LY354740; Mol. Pharmacology, Vol.53, 228-233 (1998).
Another data set addresses mGluR2. The settings on record: Mol. Pharmacology, Vol.53, 228-233 (1998).
For the next data set, the target named is mGluR3. The settings on record: Mol. Pharmacology, Vol.53, 228-233 (1998).

With `N[C@]1(C(=O)O)[C@H]2[C@@H](C[C@H]1O)[C@@H]2C(=O)O` [I-A, (1S,2R,3R,5R,6S)-2-amino-3-hydroxy-bicyclo [3.1.0]hexane-2,6-dicarboxylic acid], the pKB in data set [1] was 6.0. Also, the Ki at mGluR2 was 52 nM; at mGluR3, 89 nM.
